Reference: publication PMC1810525, “Antagonism of the prostaglandin D2 receptor CRTH2 attenuates asthma pathology in mouse eosinophilic airway inflammation” (Respiratory Research, 2007)

Assays:
AT1 = molecular target: T1, AT1 (Homo sapiens, UniProt P30556); experiment: Profiling panel, radioligand binding AT1; details: 10 μM
T1 sequence (P30556 1-359): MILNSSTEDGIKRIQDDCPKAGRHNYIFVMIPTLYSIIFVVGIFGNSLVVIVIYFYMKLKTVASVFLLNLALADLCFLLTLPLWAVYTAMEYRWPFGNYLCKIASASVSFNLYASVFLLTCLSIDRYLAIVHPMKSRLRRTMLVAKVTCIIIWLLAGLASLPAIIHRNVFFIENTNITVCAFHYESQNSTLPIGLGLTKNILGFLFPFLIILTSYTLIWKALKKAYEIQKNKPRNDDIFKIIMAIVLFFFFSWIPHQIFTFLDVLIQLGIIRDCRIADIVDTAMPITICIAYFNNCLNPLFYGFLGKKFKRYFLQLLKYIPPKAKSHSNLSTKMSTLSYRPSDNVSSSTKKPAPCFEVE
Experimental: (§2) All assays were performed using recombinant human receptors and enzymes, and included the appropriate controls for assay validation. Enzymatic and binding assays, except for muscarinic binding, were performed by CEREP in vitro pharmacology profiling services. […] For stimulation of C3a, C5a, and ChemR23 receptors in InsP assays the following agonists were used: human recombinant C3a (C3a receptor), human recombinant C5a (C5a receptor), and the nonapeptide Chemerin (ChemR23).

BLT1 = BLT1 (Homo sapiens, UniProt Q15722); experiment: Profiling panel, radioligand binding BLT1; details: 10 μM
Experimental: as §2

C3a = molecular target: T2, C3a (Homo sapiens, UniProt Q16581); experiment: Profiling panel, functional InsP C3a receptor; assay type: cell-based; details: 10 μM
T2 sequence (Q16581 1-482): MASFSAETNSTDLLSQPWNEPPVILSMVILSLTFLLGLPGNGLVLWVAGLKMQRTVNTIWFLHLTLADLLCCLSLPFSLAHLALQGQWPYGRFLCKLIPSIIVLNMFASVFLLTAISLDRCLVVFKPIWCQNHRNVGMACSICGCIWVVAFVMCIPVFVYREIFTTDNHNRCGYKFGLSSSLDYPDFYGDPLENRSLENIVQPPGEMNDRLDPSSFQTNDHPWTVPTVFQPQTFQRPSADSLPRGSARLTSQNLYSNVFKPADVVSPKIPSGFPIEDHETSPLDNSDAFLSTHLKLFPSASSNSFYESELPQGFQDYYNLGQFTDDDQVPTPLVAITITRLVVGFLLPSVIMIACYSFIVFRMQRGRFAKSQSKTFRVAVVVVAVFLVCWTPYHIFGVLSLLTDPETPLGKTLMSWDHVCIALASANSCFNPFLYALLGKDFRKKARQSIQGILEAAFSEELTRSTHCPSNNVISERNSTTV

C5a = molecular target: T3, C5a (Homo sapiens, UniProt P21730); experiment: Profiling panel, C5a receptor; details: 10 μM, assay type B (binding) per table
T3 sequence (P21730 1-350): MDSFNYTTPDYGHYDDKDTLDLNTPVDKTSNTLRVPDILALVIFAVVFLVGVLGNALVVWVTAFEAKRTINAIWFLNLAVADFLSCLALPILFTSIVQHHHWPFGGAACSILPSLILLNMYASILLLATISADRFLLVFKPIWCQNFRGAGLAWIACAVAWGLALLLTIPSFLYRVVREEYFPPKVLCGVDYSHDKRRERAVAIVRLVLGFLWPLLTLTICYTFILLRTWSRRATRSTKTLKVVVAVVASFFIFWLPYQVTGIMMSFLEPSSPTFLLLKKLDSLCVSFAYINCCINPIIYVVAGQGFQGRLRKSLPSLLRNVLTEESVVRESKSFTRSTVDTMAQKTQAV
Experimental: as §2

[1] = molecular target: Muscarinic (M2-selective) (Sus scrofa, UniProt P06199); details: 10 μM, binding, porcine heart membranes
Experimental: (§1) TM30089 was tested at a final concentration of 10 μM in either binding or functional assays on several 7TM receptors, and in enzymatic assays on selected enzymes including those involved in arachidonic acid metabolism. All assays were performed using recombinant human receptors and enzymes, and included the appropriate controls for assay validation. Enzymatic and binding assays, except for muscarinic binding, were performed by CEREP in vitro pharmacology profiling services. Full description of methods and references is available on the CEREP Web site. […] Functional assays were performed using recombinant human receptors and enzymes, and included the appropriate controls for C3a, C5a, ChemR23 receptors by determining the inhibitory potency of TM30089 in InsP assays essentially as described above. For stimulation of C3a, C5a, and ChemR23 receptors in InsP assays the following agonists were used: human recombinant C3a (C3a receptor), human recombinant C5a (C5a receptor), and the nonapeptide Chemerin (ChemR23).

[2] = system: Muscarinic (non-selective); details: 10 μM, binding, mouse brain homogenate
Experimental: as §1

COX2 = molecular target: T4, COX2 (Homo sapiens, UniProt P35354); experiment: Profiling panel, enzymatic assay COX2; assay type: biochemical; details: 10 μM
T4 sequence (P35354 18-604): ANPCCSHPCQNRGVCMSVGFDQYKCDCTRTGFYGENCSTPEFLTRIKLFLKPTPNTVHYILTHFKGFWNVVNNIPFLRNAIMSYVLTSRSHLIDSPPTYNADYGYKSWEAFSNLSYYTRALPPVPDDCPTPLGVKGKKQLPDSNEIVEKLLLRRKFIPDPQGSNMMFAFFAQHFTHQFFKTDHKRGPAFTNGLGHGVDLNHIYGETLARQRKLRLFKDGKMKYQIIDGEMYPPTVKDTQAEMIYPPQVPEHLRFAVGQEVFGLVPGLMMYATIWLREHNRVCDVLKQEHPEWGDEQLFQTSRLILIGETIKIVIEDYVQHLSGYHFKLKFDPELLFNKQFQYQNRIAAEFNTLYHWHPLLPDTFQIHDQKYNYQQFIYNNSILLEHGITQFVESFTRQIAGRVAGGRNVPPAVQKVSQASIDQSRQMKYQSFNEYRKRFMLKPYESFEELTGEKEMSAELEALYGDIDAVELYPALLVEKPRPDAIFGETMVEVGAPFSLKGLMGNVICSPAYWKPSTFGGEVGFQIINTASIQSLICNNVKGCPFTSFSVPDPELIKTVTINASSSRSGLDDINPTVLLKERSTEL
Experimental: as §2

mCRTH2 = molecular target: mCRTH2; set-up: method as in PMID 15563582; details: obtained by others in the same expression system; read-out: reported Ki value mCRTH2; cited from earlier work

Muscarinic (M2-selective), sequence (P06199 whole entry): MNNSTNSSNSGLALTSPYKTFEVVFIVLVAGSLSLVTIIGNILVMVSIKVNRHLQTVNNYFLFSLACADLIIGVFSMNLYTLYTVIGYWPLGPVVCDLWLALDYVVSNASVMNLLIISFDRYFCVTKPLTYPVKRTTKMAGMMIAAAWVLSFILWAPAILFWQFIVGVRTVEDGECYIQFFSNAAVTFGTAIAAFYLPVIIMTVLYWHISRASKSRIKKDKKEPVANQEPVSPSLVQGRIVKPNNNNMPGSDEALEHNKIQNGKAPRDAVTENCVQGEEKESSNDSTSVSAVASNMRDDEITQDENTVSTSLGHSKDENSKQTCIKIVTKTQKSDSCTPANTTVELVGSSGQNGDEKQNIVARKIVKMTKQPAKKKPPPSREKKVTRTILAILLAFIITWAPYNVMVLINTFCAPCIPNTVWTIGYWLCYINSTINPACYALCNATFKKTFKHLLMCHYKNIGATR
BLT1, sequence (Q15722 whole entry): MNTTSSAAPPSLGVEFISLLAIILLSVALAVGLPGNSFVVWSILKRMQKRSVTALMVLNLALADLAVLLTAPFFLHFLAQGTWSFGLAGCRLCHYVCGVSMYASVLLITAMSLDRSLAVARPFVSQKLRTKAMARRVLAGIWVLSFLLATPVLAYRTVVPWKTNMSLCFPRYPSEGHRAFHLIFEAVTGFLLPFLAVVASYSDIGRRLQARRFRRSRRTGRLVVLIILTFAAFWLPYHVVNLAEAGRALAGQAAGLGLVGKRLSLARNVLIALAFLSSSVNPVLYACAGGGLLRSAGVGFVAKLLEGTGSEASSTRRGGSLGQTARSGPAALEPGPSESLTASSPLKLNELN

Row | Compound | % of control AT1 (AT1) | % of control BLT1 (BLT1) | % of control C3a (C3a) | % of control C5a (C5a) | % of control Muscarinic (M2-selective) [1] | % of control Muscarinic (non-selective) [2] | % of control COX2 (COX2) | Ki (mCRTH2)
1 | CN(C1CCc2c(c3ccccc3n2CC(=O)O)C1)S(=O)(=O)c1ccc(F)cc1 (centres unmarked) [TM30089] | 90.1 ± 2.8% | 89.3 ± 3.5% | 88.7 ± 5.9% | 108.7 ± 6.3% | 97.5 ± 1.9% | 106.7 ± 8.5% | 123.8 ± 13.4% | –
2 | O=C(O)CCn1c2c(c3ccccc31)C[C@H](NS(=O)(=O)c1ccc(F)cc1)CC2 [ramatroban, reference compound] | – | – | – | – | – | – | – | 28 nM
